{"source": "ChEMBL document CHEMBL5321234", "about": "“Discovery of Thieno[3,2-d]pyrimidine derivatives as potent and selective inhibitors of ataxia telangiectasia mutated and Rad3 related (ATR) kinase” (Eur J Med Chem, 2023)", "key": {"[1]": {"experiment": "AUC (0 to infinity) in ICR mouse at 10 mg/kg, po measured upto 24 hrs by LC-MS/MS analysis", "format": "ADME, organism-based", "set-up": "dose 10 mg/kg, time < 24 hrs, route po", "settings": "in vivo; call rule not given here"}, "[2]": {"experiment": "AUC (0 to t) in ICR mouse at 10 mg/kg, po measured upto 24 hrs by LC-MS/MS analysis", "format": "ADME, organism-based", "set-up": "dose 10 mg/kg, time < 24 hrs, route po", "settings": "in vivo"}, "[3]": {"experiment": "MRT (0 to infinity) in ICR mouse at 10 mg/kg, po measured upto 24 hrs by LC-MS/MS analysis", "format": "ADME, organism-based", "settings": "in vivo"}, "[4]": {"experiment": "Half life in ICR mouse at 10 mg/kg, po measured upto 24 hrs by LC-MS/MS analysis", "format": "ADME, organism-based", "settings": "in vivo"}, "Cytochrome P450 1A2": {"biological_target": "T1, Cytochrome P450 1A2 (Homo sapiens, UniProt P05177)", "T1 sequence (P05177 whole entry)": "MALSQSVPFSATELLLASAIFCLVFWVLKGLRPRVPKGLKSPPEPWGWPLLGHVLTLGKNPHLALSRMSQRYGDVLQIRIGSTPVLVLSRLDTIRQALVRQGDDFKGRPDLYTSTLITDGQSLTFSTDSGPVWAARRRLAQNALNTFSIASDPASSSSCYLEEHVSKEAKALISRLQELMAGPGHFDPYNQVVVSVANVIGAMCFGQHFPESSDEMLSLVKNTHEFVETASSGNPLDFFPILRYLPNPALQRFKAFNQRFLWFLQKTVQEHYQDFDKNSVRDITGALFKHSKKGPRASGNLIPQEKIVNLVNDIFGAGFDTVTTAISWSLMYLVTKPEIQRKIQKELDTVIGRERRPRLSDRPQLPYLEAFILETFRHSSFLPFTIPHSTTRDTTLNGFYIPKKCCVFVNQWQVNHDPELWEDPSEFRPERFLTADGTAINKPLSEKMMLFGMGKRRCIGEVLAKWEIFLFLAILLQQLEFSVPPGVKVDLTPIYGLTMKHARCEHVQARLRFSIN", "experiment": "Inhibition of CYP1A2 (unknown origin)", "format": "ADME"}, "[5]": {"experiment": "Clearance in ICR mouse at 1 mg/kg, iv measured upto 24 hrs by LC-MS/MS analysis", "format": "ADME, organism-based", "settings": "in vivo, iv, 1 mg/kg, 24 h"}, "[6]": {"biological_target": "Serine/threonine-protein kinase mTOR (Homo sapiens, UniProt P42345)", "experiment": "Inhibition of mTOR (unknown origin)"}, "[7]": {"experiment": "Volume of distribution at steady state in ICR mouse at 1 mg/kg, iv measured upto 24 hrs by LC-MS/MS analysis", "format": "ADME, organism-based", "settings": "in vivo, iv, 1 mg/kg, 24 h"}, "[8]": {"experiment": "Oral bioavailability in ICR mouse at 10 mg/kg measured upto 24 hrs by LC-MS/MS analysis", "format": "ADME, organism-based", "settings": "in vivo"}, "[9]": {"experiment": "Inhibition of DNA-PK (unknown origin)", "set-up": "species or system Homo sapiens"}, "[10]": {"experiment": "Acute toxicity in ICR mouse assessed as mortality at 2000 mg/kg, po measured after 14 days", "format": "organism-based", "settings": "in vivo, 336 h, time 14 day"}, "[11]": {"experiment": "MRT (0 to t) in ICR mouse at 10 mg/kg, po measured upto 24 hrs by LC-MS/MS analysis", "format": "ADME, organism-based", "settings": "in vivo"}, "LoVo [12]": {"tested_on": "LoVo", "experiment": "Antitumor activity against human LoVo cells xenografted in BALB/c mouse assessed as tumor growth inhibition at 50 mg/kg, po qd administered for 21 consecutive days relative to control", "format": "functional", "settings": "504 h, time 21 day, read-out: TGI"}, "[13]": {"experiment": "Half life in ICR mouse at 1 mg/kg, iv measured upto 24 hrs by LC-MS/MS analysis", "format": "ADME, organism-based", "settings": "in vivo"}, "[14]": {"experiment": "MRT (0 to t) in ICR mouse at 1 mg/kg, iv measured upto 24 hrs by LC-MS/MS analysis", "format": "ADME, organism-based", "settings": "in vivo"}, "[15]": {"experiment": "MRT (0 to infinity) in ICR mouse at 1 mg/kg, iv measured upto 24 hrs by LC-MS/MS analysis", "format": "ADME, organism-based", "settings": "in vivo, iv, 1 mg/kg, 24 h"}, "LoVo [16]": {"tested_on": "LoVo", "experiment": "Antitumor activity against human LoVo cells xenografted in BALB/c mouse assessed as tumor growth inhibition at 50 mg/kg, po bid administered for 21 consecutive days relative to control", "format": "functional", "settings": "504 h, time 21 day, read-out: TGI"}, "[17]": {"experiment": "Toxicity in ICR male mouse assessed as mortality at 2000 mg/kg, po measured after 14 days", "format": "organism-based", "settings": "in vivo, 336 h, time 14 day"}, "[18]": {"experiment": "Initial plasma concentration in ICR mouse at 1 mg/kg, iv measured upto 24 hrs by LC-MS/MS analysis", "format": "ADME, organism-based"}, "[19]": {"experiment": "Tmax in ICR mouse at 1 mg/kg, iv measured upto 24 hrs by LC-MS/MS analysis", "format": "ADME, organism-based", "settings": "in vivo"}, "[20]": {"biological_target": "Serine/threonine-protein kinase ATR (Homo sapiens, UniProt Q13535)", "sequence (Q13535 whole entry)": "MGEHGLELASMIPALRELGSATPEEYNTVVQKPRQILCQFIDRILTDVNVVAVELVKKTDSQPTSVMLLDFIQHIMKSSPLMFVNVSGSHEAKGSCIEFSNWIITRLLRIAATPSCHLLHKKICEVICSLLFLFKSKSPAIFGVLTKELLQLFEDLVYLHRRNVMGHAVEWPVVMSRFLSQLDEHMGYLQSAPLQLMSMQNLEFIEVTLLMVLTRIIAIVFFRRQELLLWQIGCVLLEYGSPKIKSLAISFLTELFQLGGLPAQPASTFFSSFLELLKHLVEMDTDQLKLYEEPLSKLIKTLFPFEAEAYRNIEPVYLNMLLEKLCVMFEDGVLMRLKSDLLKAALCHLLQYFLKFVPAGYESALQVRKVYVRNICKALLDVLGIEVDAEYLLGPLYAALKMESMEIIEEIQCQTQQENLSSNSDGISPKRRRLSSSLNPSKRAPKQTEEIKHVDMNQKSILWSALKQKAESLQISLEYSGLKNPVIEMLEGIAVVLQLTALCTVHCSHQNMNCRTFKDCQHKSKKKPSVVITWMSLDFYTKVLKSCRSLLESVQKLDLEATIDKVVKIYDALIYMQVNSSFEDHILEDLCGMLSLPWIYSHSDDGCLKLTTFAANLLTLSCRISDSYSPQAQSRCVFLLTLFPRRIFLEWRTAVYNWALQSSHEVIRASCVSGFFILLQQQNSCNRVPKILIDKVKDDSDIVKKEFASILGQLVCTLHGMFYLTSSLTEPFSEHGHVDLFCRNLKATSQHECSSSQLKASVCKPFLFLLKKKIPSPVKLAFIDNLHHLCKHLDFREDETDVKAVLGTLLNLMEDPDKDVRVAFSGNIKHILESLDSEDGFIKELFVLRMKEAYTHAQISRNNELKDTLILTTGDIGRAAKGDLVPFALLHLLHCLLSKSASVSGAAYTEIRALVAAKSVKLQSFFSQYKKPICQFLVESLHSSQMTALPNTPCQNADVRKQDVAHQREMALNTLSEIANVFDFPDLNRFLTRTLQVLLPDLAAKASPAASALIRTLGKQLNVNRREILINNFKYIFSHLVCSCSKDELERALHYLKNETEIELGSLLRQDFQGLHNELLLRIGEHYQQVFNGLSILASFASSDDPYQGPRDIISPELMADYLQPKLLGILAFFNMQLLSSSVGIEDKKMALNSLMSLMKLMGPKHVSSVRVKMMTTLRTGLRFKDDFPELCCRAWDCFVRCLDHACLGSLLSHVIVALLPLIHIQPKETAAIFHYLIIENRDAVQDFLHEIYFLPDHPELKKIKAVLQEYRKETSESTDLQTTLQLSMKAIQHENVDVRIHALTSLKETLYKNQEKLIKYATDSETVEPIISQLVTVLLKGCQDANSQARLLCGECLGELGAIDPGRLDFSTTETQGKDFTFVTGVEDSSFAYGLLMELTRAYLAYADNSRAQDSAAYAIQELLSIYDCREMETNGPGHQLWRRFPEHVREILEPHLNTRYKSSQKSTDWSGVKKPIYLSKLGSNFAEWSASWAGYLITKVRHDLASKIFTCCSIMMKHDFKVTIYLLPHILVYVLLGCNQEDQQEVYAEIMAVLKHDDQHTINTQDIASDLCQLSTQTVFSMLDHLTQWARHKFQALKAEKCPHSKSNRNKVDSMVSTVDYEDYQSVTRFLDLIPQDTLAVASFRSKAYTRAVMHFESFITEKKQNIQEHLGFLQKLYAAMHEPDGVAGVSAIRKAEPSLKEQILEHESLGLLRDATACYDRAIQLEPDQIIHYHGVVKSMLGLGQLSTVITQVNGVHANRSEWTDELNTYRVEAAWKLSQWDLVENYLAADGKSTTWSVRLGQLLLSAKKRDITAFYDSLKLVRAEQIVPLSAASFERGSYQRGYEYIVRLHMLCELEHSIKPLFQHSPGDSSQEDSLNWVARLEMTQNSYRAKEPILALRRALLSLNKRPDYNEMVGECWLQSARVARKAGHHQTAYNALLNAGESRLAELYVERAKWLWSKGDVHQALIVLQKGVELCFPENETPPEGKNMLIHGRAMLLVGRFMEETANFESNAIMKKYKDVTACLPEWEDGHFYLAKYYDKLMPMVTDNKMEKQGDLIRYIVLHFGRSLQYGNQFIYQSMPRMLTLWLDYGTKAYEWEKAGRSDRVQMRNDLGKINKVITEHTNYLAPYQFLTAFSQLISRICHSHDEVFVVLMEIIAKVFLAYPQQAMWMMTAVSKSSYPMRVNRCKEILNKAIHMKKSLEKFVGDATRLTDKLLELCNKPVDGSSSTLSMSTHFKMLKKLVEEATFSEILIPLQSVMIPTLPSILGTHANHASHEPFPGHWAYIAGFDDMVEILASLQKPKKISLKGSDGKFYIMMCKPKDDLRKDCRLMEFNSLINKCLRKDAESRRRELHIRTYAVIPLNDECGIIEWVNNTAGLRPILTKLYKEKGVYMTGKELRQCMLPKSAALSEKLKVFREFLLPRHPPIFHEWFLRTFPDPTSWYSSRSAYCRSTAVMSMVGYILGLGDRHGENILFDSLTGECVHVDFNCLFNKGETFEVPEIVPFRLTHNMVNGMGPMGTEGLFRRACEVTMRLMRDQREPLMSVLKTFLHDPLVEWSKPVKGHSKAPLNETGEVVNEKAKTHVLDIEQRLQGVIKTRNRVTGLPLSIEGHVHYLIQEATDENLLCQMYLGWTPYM", "experiment": "Inhibition of ATR (unknown origin)"}, "[21]": {"experiment": "Cmax in ICR mouse at 1 mg/kg, iv measured upto 24 hrs by LC-MS/MS analysis", "format": "ADME, organism-based", "set-up": "time < 24 hrs, dose 1 mg/kg, route iv", "settings": "in vivo"}, "[22]": {"experiment": "Toxicity in po dosed ICR mouse assessed as mortality measured after 14 days", "format": "organism-based", "settings": "in vivo, time 14 day"}, "Cytochrome P450 3A4": {"biological_target": "Cytochrome P450 3A4 (Homo sapiens, UniProt P08684)", "sequence (P08684 whole entry)": "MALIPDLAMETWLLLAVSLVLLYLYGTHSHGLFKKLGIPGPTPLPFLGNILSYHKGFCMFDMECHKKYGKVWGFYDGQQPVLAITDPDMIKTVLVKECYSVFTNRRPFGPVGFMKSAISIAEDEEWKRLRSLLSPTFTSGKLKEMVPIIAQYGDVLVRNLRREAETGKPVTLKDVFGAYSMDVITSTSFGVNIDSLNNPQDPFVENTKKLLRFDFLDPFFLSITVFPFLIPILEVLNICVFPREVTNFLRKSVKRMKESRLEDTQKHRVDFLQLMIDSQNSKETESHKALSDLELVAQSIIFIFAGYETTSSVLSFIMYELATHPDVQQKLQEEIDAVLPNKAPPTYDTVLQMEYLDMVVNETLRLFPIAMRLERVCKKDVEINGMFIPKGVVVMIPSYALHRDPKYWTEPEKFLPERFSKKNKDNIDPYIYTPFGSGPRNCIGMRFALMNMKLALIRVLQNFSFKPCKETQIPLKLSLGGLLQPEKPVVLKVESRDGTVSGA", "experiment": "Inhibition of CYP3A4 (unknown origin)", "format": "ADME"}, "[23]": {"experiment": "AUC (0 to infinity) in ICR mouse at 1 mg/kg, iv measured upto 24 hrs by LC-MS/MS analysis", "format": "ADME, organism-based", "set-up": "dose 1 mg/kg, time < 24 hrs, route iv", "settings": "in vivo"}, "[24]": {"experiment": "Tmax in ICR mouse at 10 mg/kg, po measured upto 24 hrs by LC-MS/MS analysis", "format": "ADME, organism-based", "settings": "in vivo"}, "HT-29 [25]": {"tested_on": "HT-29", "experiment": "Antiproliferative activity against human HT-29 cells incubated for 72 hrs by CCK-8 assay", "format": "functional, cell-based", "settings": "HT-29, 72 h"}, "[26]": {"experiment": "Cmax in ICR mouse at 10 mg/kg, po measured upto 24 hrs by LC-MS/MS analysis", "format": "ADME, organism-based", "set-up": "time < 24 hrs, dose 10 mg/kg, route po", "settings": "in vivo"}, "[27]": {"experiment": "Toxicity in ICR mouse assessed as body weight change at 2000 mg/kg, po measured after 14 days", "format": "organism-based", "settings": "in vivo, 336 h, time 14 day"}, "[28]": {"experiment": "AUC (0 to t) in ICR mouse at 1 mg/kg, iv measured upto 24 hrs by LC-MS/MS analysis", "format": "ADME, organism-based", "set-up": "dose 1 mg/kg, time < 24 hrs, route iv", "settings": "in vivo"}, "LoVo [29]": {"tested_on": "LoVo", "experiment": "Antiproliferative activity against human LoVo cells incubated for 72 hrs by CCK-8 assay", "format": "functional, cell-based"}, "HT-29 [30]": {"tested_on": "HT-29", "experiment": "Antiproliferative activity against human HT-29 cells in presence of AZD1390 incubated for 72 hrs by CCK-8 assay", "format": "functional, cell-based", "settings": "HT-29, 72 h"}}}
{"smiles": "CNc1nc2ccccc2n1-c1nc(N2CCOC[C@H]2C)c2scc(S(C)(=O)=O)c2n1", "values": [{"measurement": "AUC(0-inf)", "setting": "[1]", "value": 4420, "unit": "ng·h/mL"}, {"measurement": "AUC(0-t) at 24 h", "setting": "[2]", "value": 4300, "unit": "ng·h/mL"}, {"measurement": "MRT inf", "setting": "[3]", "value": 6.2, "unit": "h"}, {"measurement": "half-life", "setting": "[4]", "value": 5.06, "unit": "h"}, {"measurement": "inhibition (INH)", "setting": "Cytochrome P450 1A2", "value": "Not Active"}, {"measurement": "CL", "setting": "[5]", "value": 17.35, "unit": "mL/min/kg"}, {"measurement": "IC50", "setting": "[6]", "value": 58.8, "unit": "nM"}, {"measurement": "Vdss", "setting": "[7]", "value": 2.371, "unit": "L/kg"}, {"measurement": "bioavailability", "setting": "[8]", "value": 46, "unit": "%"}, {"measurement": "IC50", "setting": "[9]", "value": 25.3, "unit": "nM"}, {"measurement": "Activity", "setting": "[10]", "value": "Toxic"}, {"measurement": "MRT last at 24 h", "setting": "[11]", "value": 5.3, "unit": "h"}, {"measurement": "inhibition in vivo at 50 mg/kg", "setting": "LoVo [12]", "value": 32, "unit": "%"}, {"measurement": "half-life", "setting": "[13]", "value": 1.56, "unit": "h"}, {"measurement": "MRT last at 24 h", "setting": "[14]", "value": 0.89, "unit": "h"}, {"measurement": "MRT", "setting": "[15]", "value": 0.97, "unit": "h"}, {"measurement": "inhibition in vivo at 50 mg/kg", "setting": "LoVo [16]", "value": 55, "unit": "%"}, {"measurement": "Activity", "setting": "[17]", "value": "Toxic"}, {"measurement": "C0 at 24 h", "setting": "[18]", "value": 1310, "unit": "ng/mL"}, {"measurement": "Tmax", "setting": "[19]", "value": 4.8, "unit": "min"}, {"measurement": "IC50", "setting": "[20]", "value": 1.5, "unit": "nM"}, {"measurement": "Cmax", "setting": "[21]", "value": 1140, "unit": "ng/mL"}, {"measurement": "LD50 at 336 h", "setting": "[22]", "value": 2000, "unit": "mg/kg"}, {"measurement": "inhibition (INH)", "setting": "Cytochrome P450 3A4", "value": "Not Active"}, {"measurement": "AUC(0-inf)", "setting": "[23]", "value": 962, "unit": "ng·h/mL"}, {"measurement": "Tmax", "setting": "[24]", "value": 0.25, "unit": "h"}, {"measurement": "IC50", "setting": "HT-29 [25]", "value": 161, "unit": "nM"}, {"measurement": "Cmax", "setting": "[26]", "value": 1270, "unit": "ng/mL"}, {"measurement": "Activity", "setting": "[27]", "value": "Non-Toxic"}, {"measurement": "AUC(0-t) at 24 h", "setting": "[28]", "value": 954, "unit": "ng·h/mL"}, {"measurement": "IC50", "setting": "LoVo [29]", "value": 73, "unit": "nM"}, {"measurement": "IC50", "setting": "HT-29 [30]", "value": 3, "unit": "nM"}]}
